For the assay, the target named is T1, mouse GHS-R (Mus musculus, UniProt Q99P50).
T1 construct: the complete and contiguous open reading frame of mGHS-R; expressed in transfected cells; host or cells: 293-AEQ17 (aequorin-expressing reporter cell line), transiently transfected with pcDNA-3/mouse GHS-R
Description: aequorin bioluminescence assay of mouse GHS-R expressed in 293-AEQ17 cells. It counts as cell-based. The settings on record: expression of the complete and contiguous open reading frame of mGHS-R; aequorin biolumenescence assay. On the procedure:
The mouse isoform of the previously identified GHS-R was cloned from two genomic DNA libraries for the generation of a GHS-R knock-out mouse.
The cells were harvested, washed once in ECB medium and resuspended to 500,000 cells/ml. One hundred (100) […] of cell suspension (corresponding to 5×10^4 cells) was then injected into each well of a 96-well microtiter test plate, and the integrated light emission was recorded over 30 seconds, in 0.5 second units. Twenty (20) μl of lysis buffer (0.1% final Triton X-100 concentration) was then injected and the integrated light emission recorded over 10 seconds, in 0.5 second units. The “fractional response” values for each well were calculated by taking the ratio of the integrated response to the initial challenge to the total integrated luminescence including the Triton X-100 lysis response. Data were analyzed using GraphPad Prism software V.2.0 (GraphPad Software, San Diego, Calif.).

T1 sequence (Q99P50 whole entry): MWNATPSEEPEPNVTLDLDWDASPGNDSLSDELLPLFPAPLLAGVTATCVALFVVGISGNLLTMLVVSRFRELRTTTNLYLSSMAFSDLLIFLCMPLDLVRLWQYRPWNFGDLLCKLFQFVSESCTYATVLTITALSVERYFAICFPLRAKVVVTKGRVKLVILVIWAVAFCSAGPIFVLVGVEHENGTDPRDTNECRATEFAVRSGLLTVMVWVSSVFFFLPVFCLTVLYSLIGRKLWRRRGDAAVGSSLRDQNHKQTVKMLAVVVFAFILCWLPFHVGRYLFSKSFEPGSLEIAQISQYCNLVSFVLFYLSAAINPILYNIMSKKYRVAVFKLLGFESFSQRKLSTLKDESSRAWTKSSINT

With `CC(C)(N)C(=O)N[C@H](COCc1ccccc1)C(=O)N1CCC2(CC1)CN(S(C)(=O)=O)c1ccccc12` [MK-0677], the “functional activation of mGHS-R” value is “functionally activated”.
As for GHRP-6, the entry is “functionally activated”.

(Values after US6682908B1, “Mouse growth hormone secretagogue receptor” (Merck & Co., Inc., priority 1998, dated 2004).)
